molecular target: T1, rat NaPi-2b (Rattus norvegicus, UniProt Q9JJ09); assay: Sodium-dependent phosphate uptake of Xenopus oocytes which expressed NaPi-2b (32P); type: cell-based; conditions: Xenopus oocytes expressing rat NaPi-2b, 32P radioactive phosphorus; read-out: IC50 (phosphate uptake inhibitory activity)
T1 construct: expressed in transfected cells; host or cells: Xenopus oocytes injected with cRNA
T1 sequence (Q9JJ09 1-695): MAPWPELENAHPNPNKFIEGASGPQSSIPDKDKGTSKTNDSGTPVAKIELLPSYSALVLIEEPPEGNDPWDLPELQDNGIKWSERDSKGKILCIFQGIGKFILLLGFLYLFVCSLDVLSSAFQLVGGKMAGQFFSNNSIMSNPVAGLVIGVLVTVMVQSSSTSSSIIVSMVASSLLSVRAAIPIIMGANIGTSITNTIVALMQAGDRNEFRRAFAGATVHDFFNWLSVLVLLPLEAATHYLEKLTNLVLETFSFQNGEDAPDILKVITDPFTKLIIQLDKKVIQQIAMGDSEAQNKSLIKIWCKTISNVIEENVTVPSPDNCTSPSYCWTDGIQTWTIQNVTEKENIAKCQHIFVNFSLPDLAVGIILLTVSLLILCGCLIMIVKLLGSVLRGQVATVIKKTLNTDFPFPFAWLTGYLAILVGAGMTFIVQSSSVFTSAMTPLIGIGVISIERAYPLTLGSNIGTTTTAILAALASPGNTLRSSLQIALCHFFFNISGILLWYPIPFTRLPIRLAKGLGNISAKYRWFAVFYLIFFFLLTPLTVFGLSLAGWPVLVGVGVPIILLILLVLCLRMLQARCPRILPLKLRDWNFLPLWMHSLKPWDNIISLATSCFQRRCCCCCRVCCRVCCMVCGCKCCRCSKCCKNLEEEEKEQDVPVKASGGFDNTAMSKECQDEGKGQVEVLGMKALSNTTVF
How it was run: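 Inhibition at 300 μM and 100 μM was read off one inhibition curve of 32P phosphate uptake. Uptake was measured in Xenopus oocytes cultured 2 days after injection of cRNA for cloned rat NaPi-2b.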

Row | Compound | IC50 [nM]
1 | Cc1ccc(/C=N/NC(=O)c2c(C)csc2NC(=O)c2cccc(CSCCCO)c2)cc1C [Compound 557, N-[3-(3,4-Dimethyl-benzylidene-hydrazinocarbonyl)-4-methyl-thiophen-2-yl]-3-(3-hydroxy-propylsulfanylmethyl)-benzamide] | < 300
2 | Cc1csc(NC(=O)c2cccc(CSCCCO)c2)c1C(=O)N/N=C/c1cccc(F)c1 [Compound 560, N-[3-(3-Fluoro-benzylidene-hydrazinocarbonyl)-4-methyl-thiophen-2-yl]-3-(3-hydroxy-propylsulfanylmethyl)-benzamide] | 1090
3 | Cc1csc(NC(=O)c2cccc(CSCCCO)c2)c1C(=O)N/N=C/c1ccc(Cl)c(C(F)(F)F)c1 [Compound 561, N-[3-(4-Chloro-3-trifluoromethyl-benzylidene-hydrazinocarbonyl)-4-methyl-thiophen-2-yl]-3-(3-hydroxy-propylsulfanylmethyl)-benzamide] | 310
4 | CCN(CC)CCN(C)Cc1cccc(C(=O)Nc2scc(C)c2C(=O)N/N=C/c2ccc(C)c(C)c2)c1 [Compound 563, 3-{[(2-Diethylamino-ethyl)-methyl-amino]-methyl}-N-[3-(3,4-dimethyl-benzylidene-hydrazinocarbonyl)-4-methyl-thiophen-2-yl]-benzamide] | < 1000
5 | CCN(CC)CCN(C)Cc1cccc(C(=O)Nc2scc(C)c2C(=O)N/N=C/c2ccc(C)cc2)c1 [Compound 564, 3-{[(2-Diethylamino-ethyl)-methyl-amino]-methyl}-N-[4-methyl-3-(4-methyl-benzylidene-hydrazinocarbonyl)-thiophen-2-yl]-benzamide] | 11600
6 | CCN(CC)CCN(C)Cc1cccc(C(=O)Nc2scc(C)c2C(=O)N/N=C/c2ccc(F)cc2)c1 [Compound 565, 3-{[(2-Diethylamino-ethyl)-methyl-amino]-methyl}-N-[3-(4-fluoro-benzylidene-hydrazinocarbonyl)-4-methyl-thiophen-2-yl]-benzamide] | 13000

Other lines, results leading:

Row | IC50 [nM] | Compound
7 | 470 | Cc1ccc(/C=N/NC(=O)c2c(C)csc2NC(=O)c2cccc(CSc3nc[nH]n3)c2)cc1C [Compound 551, N-[3-(3,4-Dimethyl-benzylidene-hydrazinocarbonyl)-4-methyl-thiophen-2-yl]-3-(1H-[1,2,4]triazol-3-ylsulfanylmethyl)-benzamide]
8 | 2630 | Cc1ccc(/C=N/NC(=O)c2c(C)csc2NC(=O)c2cccc(CSc3nc[nH]n3)c2)cc1 [Compound 552, N-[4-Methyl-3-(4-methyl-benzylidene-hydrazinocarbonyl)-thiophen-2-yl]-3-(1H-[1,2,4]triazol-3-ylsulfanylmethyl)-benzamide]
9 | 2800 | Cc1csc(NC(=O)c2cccc(CSc3nc[nH]n3)c2)c1C(=O)N/N=C/c1ccc(F)cc1 [Compound 553, N-[3-(4-Fluoro-benzylidene-hydrazinocarbonyl)-4-methyl-thiophen-2-yl]-3-(1H-[1,2,4]triazol-3-ylsulfanylmethyl)-benzamide]
10 | 1460 | Cc1csc(NC(=O)c2cccc(CSc3nc[nH]n3)c2)c1C(=O)N/N=C/c1cccc(F)c1 [Compound 554, N-[3-(3-Fluoro-benzylidene-hydrazinocarbonyl)-4-methyl-thiophen-2-yl]-3-(1H-[1,2,4]triazol-3-ylsulfanylmethyl)-benzamide]
11 | < 3000 | Cc1csc(NC(=O)c2cccc(CSc3nc[nH]n3)c2)c1C(=O)N/N=C/c1ccc(Cl)c(C(F)(F)F)c1 [Compound 555, N-[3-(4-Chloro-3-trifluoromethyl-benzylidene-hydrazinocarbonyl)-4-methyl-thiophen-2-yl]-3-(1H-[1,2,4]triazol-3-ylsulfanylmethyl)-benzamide]
12 | < 3000 | COc1ccc(/C=N/NC(=O)c2c(C)csc2NC(=O)c2cccc(CSc3nc[nH]n3)c2)cc1 [Compound 556, N-[3-(4-Methoxy-benzylidene-hydrazinocarbonyl)-4-methyl-thiophen-2-yl]-3-(1H-[1,2,4]triazol-3-ylsulfanylmethyl)-benzamide]
13 | 1070 | Cc1ccc(/C=N/NC(=O)c2c(C)csc2NC(=O)c2cccc(CSCCCO)c2)cc1 [Compound 558, 3-(3-Hydroxy-propylsulfanylmethyl)-N-[4-methyl-3-(4-methyl-benzylidene-hydrazinocarbonyl)-thiophen-2-yl]-benzamide]
14 | 1260 | Cc1csc(NC(=O)c2cccc(CSCCCO)c2)c1C(=O)N/N=C/c1ccc(F)cc1 [Compound 559, N-[3-(4-Fluoro-benzylidene-hydrazinocarbonyl)-4-methyl-thiophen-2-yl]-3-(3-hydroxy-propylsulfanylmethyl)-benzamide]
15 | < 1000 | COc1ccc(/C=N/NC(=O)c2c(C)csc2NC(=O)c2cccc(CSCCCO)c2)cc1 [Compound 562, 3-(3-Hydroxy-propylsulfanylmethyl)-N-[3-(4-methoxy-benzylidene-hydrazinocarbonyl)-4-methyl-thiophen-2-yl]-benzamide]

same assay, conditions: phosphate uptake, oocytes expressing rat NaPi-2b; 300 μM, determined from inhibition curve

Row | inhibition at 300 µM [%] | Compound
16 | 30.2 | COc1ccc(/C=N/NC(=O)c2scc(C)c2NC(=O)c2cccc(CN3CCC(O)CC3)c2)cc1 [Compound 543, 3-(4-Hydroxy-piperidin-1-ylmethyl)-N-[2-(4-methoxy-benzylidene-hydrazinocarbonyl)-4-methyl-thiophen-3-yl]-benzamide]
17 | 60 | Cc1ccc(CNNC(=O)c2cc(Br)ccc2NC(=O)c2ccccn2)cc1 [Compound 544, Pyridin-2-carboxylic acid {4-bromo-2-[N′-(4-methyl-benzyl)-hydrazinocarbonyl]-phenyl}-amide]
18 | 88.8 | Cc1ccc(CNNC(=O)c2ccccc2NC(=O)c2ccncc2)cc1 [Compound 545, N-{2-[N′-(4-Methyl-benzyl)-hydrazinocarbonyl]-phenyl}-isonicotinamide]
19 | 85.2 | O=C(Nc1ccc(Br)cc1C(=O)NNCc1ccc(Cl)c(C(F)(F)F)c1)c1cccc(CSCCO)c1 [Compound 546, N-{4-Bromo-2-[N′-(4-chloro-3-trifluoromethyl-benzyl)-hydrazinocarbonyl]-phenyl}-3-(2-hydroxy-ethylsulfanylmethyl)-benzamide]
20 | 66.6 | Cc1ccc(CNNC(=O)c2cc(Cl)ccc2NC(=O)c2cccc(CSCCO)c2)cc1 [Compound 547, N-{4-Chloro-2-[N′-(4-methyl-benzyl)-hydrazinocarbonyl]-phenyl}-3-(2-hydroxy-ethylsulfanylmethyl)-benzamide]
21 | 85.7 | COc1ccc(C(=O)Nc2ccc(Br)cc2C(=O)NNCc2ccc(C)c(C)c2)cc1OC [Compound 548, N-{4-Bromo-2-[N′-(3,4-dimethyl-benzyl)-hydrazinocarbonyl]-phenyl}-3,4-dimethoxy-benzamide]
22 | 85.1 | O=C(Nc1ccc(Cl)cc1C(=O)N/N=C/c1cccc(F)c1)c1cccc(CN(CCO)CCO)c1 [Compound 549, 3-{[Bis-(2-hydroxy-ethyl)-amino]-methyl}-N-[4-chloro-2-(3-fluoro-benzylidene-hydrazinocarbonyl)-phenyl]-benzamide]
23 | 78.9 | O=C(Nc1ccc(Cl)cc1C(=O)N/N=C/c1ccc(F)cc1)c1cccc(CN(CCO)CCO)c1 [Compound 550, 3-{[Bis-(2-hydroxy-ethyl)-amino]-methyl}-N-[4-chloro-2-(4-fluoro-benzylidene-hydrazinocarbonyl)-phenyl]-benzamide]

From patent US8134015B2, “Compound inhibiting in vivo phosphorous transport and medicine containing the same” (Kyowa Hakko Kirin Co., Ltd., priority 2003, dated 2012)
